Results published in paper PMC5974765, “Targets Fishing and Identification of Calenduloside E as Hsp90AB1: Design, Synthesis, and Evaluation of Clickable Activity-Based Probe” (Frontiers in Pharmacology, 2018).

How the values were obtained:
Hsp90AB1 [1] = target: T1, Hsp90AB1 (Homo sapiens, UniProt P08238); test: SPR (Biacore, CM5 chip with immobilized protein); also competes with CE-P in HUVEC lysate pull-down; type: binding
T1 construct: recombinant human Hsp90AB1 protein

Hsp90AB1 [2] = target: T1, Hsp90AB1; test: SPR (Biacore, CM5 chip with immobilized protein); also click pull-down of recombinant protein and from HUVEC lysate; type: binding

T1 sequence (P08238 2-724): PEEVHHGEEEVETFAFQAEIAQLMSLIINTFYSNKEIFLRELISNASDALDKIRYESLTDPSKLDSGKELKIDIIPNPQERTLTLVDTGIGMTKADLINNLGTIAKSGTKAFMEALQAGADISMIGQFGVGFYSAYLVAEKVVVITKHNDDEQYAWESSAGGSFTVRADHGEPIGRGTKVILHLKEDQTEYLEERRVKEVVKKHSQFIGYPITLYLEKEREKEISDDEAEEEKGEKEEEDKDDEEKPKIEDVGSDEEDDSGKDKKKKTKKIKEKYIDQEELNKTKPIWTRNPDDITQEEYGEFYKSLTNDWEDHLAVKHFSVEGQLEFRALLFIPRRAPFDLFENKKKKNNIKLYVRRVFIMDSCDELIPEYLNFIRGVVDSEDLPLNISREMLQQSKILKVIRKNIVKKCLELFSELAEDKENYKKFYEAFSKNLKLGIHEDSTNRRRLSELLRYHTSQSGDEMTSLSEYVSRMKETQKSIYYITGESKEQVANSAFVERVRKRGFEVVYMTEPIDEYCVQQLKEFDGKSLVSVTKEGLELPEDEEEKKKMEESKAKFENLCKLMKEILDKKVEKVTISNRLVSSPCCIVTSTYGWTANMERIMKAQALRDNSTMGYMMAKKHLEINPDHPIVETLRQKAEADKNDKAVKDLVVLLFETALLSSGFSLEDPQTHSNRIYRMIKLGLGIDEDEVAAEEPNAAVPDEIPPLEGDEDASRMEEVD

Row | SMILES | Kd (Hsp90AB1 [1]) | Kd (Hsp90AB1 [2])
1 | CC1(C)CC[C@]2(C(=O)O)CC[C@]3(C)C(=CC[C@@H]4[C@@]5(C)CC[C@H](O[C@@H]6O[C@H](C(=O)O)[C@@H](O)[C@H](O)[C@H]6O)C(C)(C)[C@@H]5CC[C@]43C)[C@@H]2C1 [CE, Calenduloside E] | 2.34 µM | 
2 | C#CCNC(=O)C12CCC(C)(C)C[C@H]1C1=CC[C@@H]3[C@@]4(C)CC[C@H](O[C@@H]5O[C@H](C(=O)O)[C@@H](O)[C@H](O)[C@H]5O)C(C)(C)[C@@H]4CC[C@@]3(C)[C@]1(C)CC2 (some centres unmarked) [VI, CE-P] |  | 23.4 µM
